Reference: patent US20260078103A1, “ISOQUINOLONES AS PI3K INHIBITORS” (OnKure, Inc., priority 2022, published 2026)
Where two headings read alike, the source gives them in different places.

What was measured:
Type in all cases: cell-based
[1] = system: SKBR3 cells express WT PI3Ka; assay: In vitro cell proliferation, SKBR3 cells (CellTiter-Glo); conditions: inhibition of proliferation
In short: (§1)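 T47D cells in RPMI/10% FBS/insulin (0.2 units/mL) or SKBR3 in McCoys 5a/10% FBS, 1,500 cells/well, grown 72 h at 37 °C with 10-point compound dilutions. CellTiter-Glo luminescence; % inhibition normalised to 0.1% DMSO and 10 uM Alpelisib, EC50 from four-parameter curve fit.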

[2] = system: phosphorylation of AKT (pAKT) in T47D cells expressing mutant PI3Ka (H1047R); assay: In vitro cell pAKT (Ser473) HTRF, T47D cells; conditions: cellular pAKT, T47D cells, mutant PI3Ka (H1047R), 6 hours, read-out: Avg T-47D IC50
In short: (§2)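 pAKT (Ser473) was quantified by HTRF in lysates from cells exposed 6 h at 37 °C to 10-point compound series, with T47D in insulin-supplemented RPMI/10% FBS and SKBR3 in McCoy's 5a/10% FBS. Controls: 0.1% DMSO (high) and 10 uM alpelisib (low). IC50 from sigmoidal curve fitting.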

[3] = system: phosphorylation of AKT (pAKT) in SKBR3 cells express WT PI3Ka; assay: In vitro cell pAKT (Ser473) HTRF, SKBR3 cells; conditions: cellular pAKT
In short: as §2

[4] = system: T47D cells expressing mutant PI3Ka (H1047R); assay: In vitro cell proliferation, T47D cells (CellTiter-Glo); conditions: inhibition of proliferation, read-out: Avg T-47D EC50
In short: as §1

Row | EC50 ([1]; Homo sapiens, SK-BR-3, 72 h) | IC50 ([2]; Homo sapiens, T47D, 6 h) | IC50 ([3]; Homo sapiens, SK-BR-3, 6 h) | EC50 ([4]; Homo sapiens, T47D, 72 h) | EC50 ([1]; 72 hours) | IC50 [2] | IC50 ([3]; 6 hours) | EC50 ([4]; 72 hours) | Structure (SMILES)
1 | 2 to 15 µM | 1 to 500 nM | 2 to 15 µM | 1 to 500 nM | – | – | – | – | COc1ccc(N2CCN(c3cc4c([C@@H](C)Nc5ccccc5C(=O)O)cc(C)cc4c(=O)n3C)CC2)cn1 [Example 218]
2 | – | – | – | – | 2 to 15 µM | 1 to 500 nM | 2 to 15 µM | 1 to 500 nM | Cc1cc([C@@H](C)Nc2ccccc2C(=O)O)c2cc(N3CCC4(CC3)CN(CC(F)(F)F)C4)n(C)c(=O)c2c1 [Example 219]
3 | > 15 µM | 1 to 500 nM | 2 to 15 µM | 1 to 500 nM | – | – | – | – | Cc1cc([C@@H](C)Nc2ccccc2C(=O)O)c2cc(N3CCN(c4cnn(C)c4)CC3)n(C)c(=O)c2c1 [Example 220]
4 | > 15 µM | 1 to 500 nM | 2 to 15 µM | 1 to 500 nM | – | – | – | – | Cc1cc([C@@H](C)Nc2ccccc2C(=O)O)c2cc(N3CCN(c4ccccc4F)CC3)n(C)c(=O)c2c1 [Example 221]
5 | > 15 µM | 2000 to 15000 nM | > 15 µM | 2000 to 15000 nM | – | – | – | – | Cc1cc([C@@H](C)Nc2ccccc2C(=O)O)c2cc(NCc3ccc(F)cc3)n(C)c(=O)c2c1 [Example 222]
6 | > 15 µM | 1 to 500 nM | > 15 µM | 500 to 2000 nM | – | – | – | – | Cc1cc([C@@H](C)Nc2ccccc2C(=O)O)c2cc(-c3cnc(C)cc3C)n(C)c(=O)c2c1 [Example 223]
7 | > 15 µM | 1 to 500 nM | > 15 µM | 1 to 500 nM | – | – | – | – | Cc1cc([C@@H](C)Nc2ccccc2C(=O)O)c2cc(-c3ccc(C(C)(C)F)nc3)n(C)c(=O)c2c1 [Example 225]
8 | > 15 µM | 1 to 500 nM | > 15 µM | 1 to 500 nM | – | – | – | – | Cc1cc([C@@H](C)Nc2ccccc2C(=O)O)c2cc(-c3ccc(C(C)C)nc3)n(C)c(=O)c2c1 [Example 226]
9 | > 15 µM | 1 to 500 nM | > 15 µM | 1 to 500 nM | – | – | – | – | Cc1cc([C@@H](C)Nc2ccccc2C(=O)O)c2cc(-c3ccc(C4CC4)nc3)n(C)c(=O)c2c1 [Example 227]
10 | > 15 µM | 1 to 500 nM | > 15 µM | 1 to 500 nM | – | – | – | – | Cc1cc([C@@H](C)Nc2ccccc2C(=O)O)c2cc(-c3ccc(C(C)(F)F)nc3)n(C)c(=O)c2c1 [Example 230]
11 | 2 to 15 µM | 1 to 500 nM | 2 to 15 µM | 1 to 500 nM | – | – | – | – | Cc1cc([C@@H](C)Nc2ccccc2C(=O)O)c2cc(N3CCN(c4cnn(C)n4)CC3)n(C)c(=O)c2c1 [Example 231]
12 | 2 to 15 µM | 1 to 500 nM | 2 to 15 µM | 1 to 500 nM | – | – | – | – | Cc1cc([C@@H](C)Nc2ccccc2C(=O)O)c2cc(N3CCN(c4ccn(C)n4)CC3)n(C)c(=O)c2c1 [Example 232]
13 | 2 to 15 µM | 1 to 500 nM | 2 to 15 µM | 1 to 500 nM | – | – | – | – | CNc1ccc(N2CCN(c3cc4c([C@@H](C)Nc5ccccc5C(=O)O)cc(C)cc4c(=O)n3C)CC2)cn1 [Example 233]
14 | > 15 µM | 1 to 500 nM | > 15 µM | 1 to 500 nM | – | – | – | – | COc1ncc(-c2cc3c([C@@H](C)Nc4ccccc4C(=O)O)cc(C)cc3c(=O)n2C)cn1 [Example 234]
15 | 2 to 15 µM | 500 to 2000 nM | 2 to 15 µM | 1 to 500 nM | – | – | – | – | Cc1cc([C@@H](C)Nc2ccccc2C(=O)O)c2cc(N3CCN(c4cncnc4)CC3)n(C)c(=O)c2c1 [Example 235]
16 | 2 to 15 µM | 1 to 500 nM | 2 to 15 µM | 1 to 500 nM | – | – | – | – | Cc1cc([C@@H](C)Nc2ccccc2C(=O)O)c2cc(N3CCN(c4cncnc4C)CC3)n(C)c(=O)c2c1 [Example 236]
17 | 2 to 15 µM | 1 to 500 nM | 2 to 15 µM | 1 to 500 nM | – | – | – | – | Cc1cc([C@@H](C)Nc2ccccc2C(=O)O)c2cc(N3CCN(c4cnc(C)nc4)CC3)n(C)c(=O)c2c1 [Example 237]
18 | > 15 µM | 1 to 500 nM | > 15 µM | 1 to 500 nM | – | – | – | – | CCOc1ncc(-c2cc3c([C@@H](C)Nc4ccccc4C(=O)O)cc(C)cc3c(=O)n2C)cc1F [Example 238]
19 | > 15 µM | 1 to 500 nM | > 15 µM | 1 to 500 nM | – | – | – | – | Cc1cc([C@@H](C)Nc2ccccc2C(=O)O)c2cc(-c3cnc(C4CC4)s3)n(C)c(=O)c2c1 [Example 239]
20 | > 15 µM | 1 to 500 nM | > 15 µM | 1 to 500 nM | – | – | – | – | Cc1cc([C@@H](C)Nc2ccccc2C(=O)O)c2cc(-c3cnc4c(c3)CCC4(F)F)n(C)c(=O)c2c1 [Example 240]

Row | EC50 ([1]; Homo sapiens, SK-BR-3, 72 h) | IC50 ([2]; Homo sapiens, T47D, 6 h) | IC50 ([3]; Homo sapiens, SK-BR-3, 6 h) | EC50 ([4]; Homo sapiens, T47D, 72 h) | EC50 ([1]; 72 hours) | IC50 [2] | IC50 ([3]; 6 hours) | EC50 ([4]; 72 hours) | Structure (SMILES)
21 | > 15 µM | 1 to 500 nM | > 15 µM | 1 to 500 nM | – | – | – | – | Cc1cc([C@@H](C)Nc2ccccc2C(=O)O)c2cc(-c3ccncc3)n(C)c(=O)c2c1 [Example 241]
22 | > 15 µM | 1 to 500 nM | > 15 µM | 1 to 500 nM | – | – | – | – | Cc1cc([C@@H](C)Nc2ccccc2C(=O)O)c2cc(N3CCC(C)(C#N)C3)n(C)c(=O)c2c1 (stereo partly shown) [Example 243]
23 | – | – | – | – | > 15 µM | 1 to 500 nM | 2 to 15 µM | 1 to 500 nM | Cc1cc([C@@H](C)Nc2ccccc2C(=O)O)c2cc(N3CCN(CC(F)(F)C4CC4)CC3)n(C)c(=O)c2c1 [Example 244]
24 | > 15 µM | 2000 to 15000 nM | > 15 µM | 2000 to 15000 nM | – | – | – | – | COc1ncc(-c2cc3c([C@@H](C)Nc4ccccc4C(=O)O)cc(C)cc3c(=O)n2C)cc1F [Example 246]
25 | > 15 µM | 1 to 500 nM | > 15 µM | 1 to 500 nM | – | – | – | – | COCc1ncc(-c2cc3c([C@@H](C)Nc4ccccc4C(=O)O)cc(C)cc3c(=O)n2C)cc1F [Example 247]
26 | > 15 µM | 1 to 500 nM | > 15 µM | 500 to 2000 nM | – | – | – | – | Cc1cc([C@@H](C)Nc2ccccc2C(=O)O)c2cc(-c3cnc4c(c3)CCC4F)n(C)c(=O)c2c1 (stereo partly shown) [Example 248]
27 | > 15 µM | 1 to 500 nM | > 15 µM | 1 to 500 nM | – | – | – | – | Cc1cc([C@@H](C)Nc2ccccc2C(=O)O)c2cc(N3CCOCC3)n(C)c(=O)c2c1 [Example 249]
28 | > 15 µM | 1 to 500 nM | > 15 µM | 1 to 500 nM | – | – | – | – | Cc1cc([C@@H](C)Nc2ccccc2C(=O)O)c2cc(N3CCN(OC(C)C)CC3)n(C)c(=O)c2c1 [Example 250]
29 | > 15 µM | 1 to 500 nM | > 15 µM | 1 to 500 nM | – | – | – | – | Cc1cc([C@@H](C)Nc2ccccc2C(=O)O)c2cc(-c3cnc4c(c3)CCO4)n(C)c(=O)c2c1 [Example 252]
30 | > 15 µM | 500 to 2000 nM | > 15 µM | 500 to 2000 nM | – | – | – | – | Cc1cc([C@@H](C)Nc2ccccc2C(=O)O)c2cc(N3CCN(c4ncn(C)n4)CC3)n(C)c(=O)c2c1 [Example 253]
31 | – | – | – | – | > 15 µM | 2000 to 15000 nM | > 15 µM | 2000 to 15000 nM | Cc1cc([C@@H](C)Nc2ccccc2C(=O)O)c2cc(N3CCN(c4cn(C)nn4)CC3)n(C)c(=O)c2c1 [Example 254]
32 | 2 to 15 µM | 1 to 500 nM | 2 to 15 µM | 1 to 500 nM | – | – | – | – | Cc1cc([C@@H](C)Nc2ccccc2C(=O)O)c2cc(N3CCN(c4nccnc4C)CC3)n(C)c(=O)c2c1 [Example 255]
33 | – | – | – | – | 2 to 15 µM | 1 to 500 nM | 2 to 15 µM | 1 to 500 nM | COc1ncccc1N1CCN(c2cc3c([C@@H](C)Nc4ccccc4C(=O)O)cc(C)cc3c(=O)n2C)CC1 [Example 256]
34 | 2 to 15 µM | 1 to 500 nM | 2 to 15 µM | 1 to 500 nM | – | – | – | – | CCc1ncccc1N1CCN(c2cc3c([C@@H](C)Nc4ccccc4C(=O)O)cc(C)cc3c(=O)n2C)CC1 [Example 257]
35 | – | – | – | – | > 15 µM | 1 to 500 nM | 2 to 15 µM | 1 to 500 nM | Cc1cc([C@@H](C)Nc2ccc(F)cc2C(=O)O)c2cc(N3CCN(CC(F)(F)F)CC3)n(C)c(=O)c2c1 [Example 259]
36 | > 15 µM | 2000 to 15000 nM | > 15 µM | 500 to 2000 nM | – | – | – | – | Cc1cc([C@@H](C)Nc2ccccc2C(=O)O)c2cc(N3CCC(C)(O)CC3)n(C)c(=O)c2c1 [Example 260]
37 | – | – | – | – | > 15 µM | 1 to 500 nM | > 15 µM | 1 to 500 nM | Cc1cc([C@@H](C)Nc2ccccc2C(=O)O)c2cc(N3CCN(CCC(F)(F)F)CC3)n(C)c(=O)c2c1 [Example 264]
38 | > 15 µM | 1 to 500 nM | > 15 µM | 1 to 500 nM | – | – | – | – | Cc1cc([C@@H](C)Nc2ccccc2C(=O)O)c2cc(-c3cnc4ccoc4c3)n(C)c(=O)c2c1 [Example 265]
39 | > 15 µM | 1 to 500 nM | > 15 µM | 1 to 500 nM | – | – | – | – | Cc1cc([C@@H](C)Nc2ccccc2C(=O)O)c2cc(-c3cnc(C(C)(C)F)c(F)c3)n(C)c(=O)c2c1 [Example 268]
40 | – | – | – | – | 2 to 15 µM | 1 to 500 nM | 2 to 15 µM | 1 to 500 nM | Cc1cc([C@@H](C)Nc2ccc(F)cc2C(=O)O)c2cc(-c3cnc(C(C)(C)F)c(F)c3)n(C)c(=O)c2c1 [Example 269]
